Assay results from patent publication US7888351B2, “Organic compounds” (Novartis AG, priority 2006, dated 2011).

Target: T1, human DPP-IV (Homo sapiens, UniProt P27487)
T1 construct: Human DPP-IV consisting of amino acids 39 to 766 followed by a C-terminal Streptavidin-tag; Streptavidin-tag (C); made in house
Experiment: Activity assay: inhibitory activity to human DPP-IV (fluorogenic substrate H-Gly-Pro-AMC)
Assay type: biochemical
Conditions: substrate H-Gly-Pro-AMC 10 μM, enzyme 10 pM, room temperature, 1 hour; read-out: hDPPIV IC50
Protocol: Various compounds of the invention were tested for their inhibitory activity to human DPP-IV.
Human DPP-IV consisting of amino acids 39 to 766 followed by a C-terminal Streptavidin-tag was expressed using the baculovirus system and purified to >80% purity. The enzyme was stored in 25 mM Tris buffer, pH 9.0, containing 300 mM NaCl at −80° C. The fluorogenic substrates H-Gly-Pro-AMC was purchased from Bachem AG (Bubendorf, Switzerland). The substrate was kept as a 5 mM stock solution in DMSO at −20° C. All other chemicals were purchased from Sigma (Buchs, Switzerland).
The assay buffer for the DPP-IV reaction was 25 mM Tris/HCl, pH 7.5, containing 140 mM NaCl, 10 mM KCl and 0.05% (w/v) CHAPS.
The test compounds were dissolved in 90% DMSO/10% H2O (v/v). Serial dilutions of the compounds from 3 mM to 0.03 μM in 90% DMSO/10% H2O (v/v) followed by a 1:33.3 dilution in assay buffer was done in 96-well polypropylene plates using a CyBio Dilus 8-channel pipetter (CyBio AG, Jena, Germany) with tip change after each pipetting step. The compound solutions as well as the substrate and the enzyme solutions were transferred to the assay plates (384-well black Cliniplate; cat. no. 95040020 Labsystems Oy, Finland) by means of a CyBi-Well 96-channel pipetter (CyBio AG, Jena, Germany).
Enzyme kinetics were measured by mixing 10 μl of a 3-fold concentrated substrate solution in assay buffer (final substrate concentration was 10 μM) with 10 μl of the corresponding compound solution. The reactions were initiated by addition of 10 μl of a 3-fold concentrated solution of the enzyme in assay buffer. Final enzyme (active site) concentrations in the assay was 10 pM for DPP-IV. Fluorescence product (AMC) formation was monitored for 1 hour at room temperature at 35 second intervals by measuring the fluorescence emission at 500 nm using an exitation wavelength of 350 nm in a TECAN Ultra fluorescence reader (TECAN, Maennedorf, Switzerland). The fluorescence in each well was excited by one flash per measurement. The Origin software package (Origin 7.5 Mircocal, Northampton, Mass., USA) was used to generate all graphs and to perform the IC50 calculations.

T1 sequence (P27487 39-766): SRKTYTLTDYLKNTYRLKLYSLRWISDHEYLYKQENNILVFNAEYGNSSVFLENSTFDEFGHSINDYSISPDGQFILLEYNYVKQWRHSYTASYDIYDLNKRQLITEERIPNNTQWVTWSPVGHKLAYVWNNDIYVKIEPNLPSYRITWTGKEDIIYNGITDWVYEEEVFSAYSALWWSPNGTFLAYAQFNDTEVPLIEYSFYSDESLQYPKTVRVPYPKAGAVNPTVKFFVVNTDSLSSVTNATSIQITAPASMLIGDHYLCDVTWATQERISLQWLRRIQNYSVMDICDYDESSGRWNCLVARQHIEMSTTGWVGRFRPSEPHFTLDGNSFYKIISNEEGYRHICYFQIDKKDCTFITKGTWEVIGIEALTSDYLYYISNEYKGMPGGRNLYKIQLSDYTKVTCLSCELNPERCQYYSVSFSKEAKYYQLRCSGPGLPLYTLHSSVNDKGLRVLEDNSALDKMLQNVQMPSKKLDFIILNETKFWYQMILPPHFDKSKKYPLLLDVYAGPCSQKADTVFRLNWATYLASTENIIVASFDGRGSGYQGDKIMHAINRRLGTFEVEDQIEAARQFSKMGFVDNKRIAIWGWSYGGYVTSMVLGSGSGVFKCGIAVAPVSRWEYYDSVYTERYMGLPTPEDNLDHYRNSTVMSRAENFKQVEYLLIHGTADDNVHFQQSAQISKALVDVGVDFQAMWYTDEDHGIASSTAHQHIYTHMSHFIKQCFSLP

SMILES	IC50
Cc1cnc(C(=O)NCCS(=O)(=O)N2[C@@H]3CC[C@H]2C[C@H]([C@H](N)Cc2cc(F)c(F)cc2F)C3)cn1 [Example D1, 5-Methyl-pyrazine-2-carboxylic acid (2-{3-exo-[(R)-1-amino-2-(2,4,5-trifluoro-phenyl)-ethyl]-8-aza-bicyclo[3.2.1]octane-8-sulfonyl}-ethyl)-amide]	7.7 nM
N[C@H](Cc1cc(F)c(F)cc1F)[C@@H]1C[C@H]2CC[C@@H](C1)N2C(=O)CNC(=O)C1(O)CC1 [Example E7, 1-Hydroxy-cyclopropanecarboxylic acid (2-{3-exo-[(R)-1-amino-2-(2,4,5-trifluoro-phenyl)-ethyl]-8-aza-bicyclo[3.2.1]oct-8-yl}-2-oxo-ethyl)-amide]	0.6 nM
C[C@](O)(C(=O)N1[C@@H]2CC[C@H]1C[C@H]([C@H](N)Cc1cc(F)c(F)cc1F)C2)c1ccccc1 [Example G4, (R)-1-{3-exo-[(R)-1-Amino-2-(2,4,5-trifluoro-phenyl)-ethyl]-8-aza-bicyclo[3.2.1]oct-8-yl}-2-hydroxy-2-phenyl-propan-1-one]	10 nM
N[C@H](Cc1cc(F)c(F)cc1F)[C@@H]1C[C@H]2CC[C@@H](C1)N2C(=O)CS(=O)(=O)N1Cc2ccccc2C1 [Example H13, 1-{3-exo-[(R)-1-Amino-2-(2,4,5-trifluoro-phenyl)-ethyl]-8-aza-bicyclo[3.2.1]oct-8-yl}-2-(1,3-dihydro-isoindole-2-sulfonyl)-ethanone]	7 nM
